Assay results taken from the NIST ThermoML archive (doi:10.1016/j.jct.2005.09.003).

Assay: xn = mol fraction of the nth substance listed
Conditions: Liquid

CCCCCCCl [1-chlorohexane] + CCCCCCCC
mass density [kg/m3]
Conditions	x2 = 0	x2 = 0.1016	x2 = 0.1996	x2 = 0.3153	x2 = 0.3948	x2 = 0.4862	x2 = 0.5938	x2 = 0.6966	x2 = 0.794	x2 = 0.9001
298.15 K, 39620 kPa	–	–	–	–	–	–	–	–	–	741.83
308.15 K, 100 kPa	863.99	843.29	824.06	802.22	787.75	771.63	753.33	736.52	721.15	705.03
308.15 K, 2130 kPa	865.56	845	825.77	803.94	789.46	773.39	755.1	738.36	722.94	706.75
308.15 K, 4150 kPa	867.35	846.81	827.59	805.76	791.31	775.22	756.95	740.19	724.76	708.57
308.15 K, 6180 kPa	869.15	848.61	829.39	807.57	793.1	777.03	758.74	742	726.58	710.37
308.15 K, 8210 kPa	870.9	850.37	831.16	809.34	794.85	778.81	760.51	743.77	728.34	712.11
308.15 K, 10230 kPa	872.61	852.08	832.88	811.05	796.6	780.52	762.22	745.47	730.04	713.8
308.15 K, 11250 kPa	873.47	852.95	833.74	811.91	797.46	781.38	763.1	746.33	730.91	714.66
308.15 K, 12260 kPa	874.3	853.78	834.58	812.74	798.31	782.22	763.93	747.17	731.72	715.48
308.15 K, 14290 kPa	875.96	855.47	836.25	814.43	799.98	783.88	765.62	748.84	733.37	717.14
308.15 K, 16310 kPa	877.59	857.09	837.88	816.06	801.61	785.51	767.22	750.45	735	718.74
308.15 K, 18340 kPa	879.2	858.68	839.49	817.66	803.22	787.12	768.81	752.06	736.58	720.34
308.15 K, 20370 kPa	880.78	860.28	841.08	819.25	804.79	788.69	770.37	753.6	738.13	721.86
308.15 K, 22390 kPa	882.35	861.81	842.63	820.79	806.33	790.24	771.9	755.13	739.65	723.39
308.15 K, 24420 kPa	883.86	863.33	844.15	822.3	807.85	791.75	773.44	756.65	741.13	724.85
308.15 K, 26450 kPa	885.35	864.85	845.66	823.79	809.33	793.23	774.9	758.1	742.61	726.31
308.15 K, 28470 kPa	886.84	866.32	847.13	825.28	810.81	794.7	776.37	759.57	744.06	727.75
308.15 K, 29490 kPa	887.56	867.04	847.84	825.98	811.52	795.4	777.07	760.27	744.75	728.43
308.15 K, 30500 kPa	888.21	867.77	848.57	826.72	812.26	796.13	777.79	760.96	745.47	729.14
308.15 K, 32530 kPa	889.73	869.2	850.02	828.15	813.68	797.54	779.17	762.38	746.85	730.54
308.15 K, 34550 kPa	891.14	870.61	851.41	829.56	815.08	798.95	780.59	763.77	748.23	731.86
308.15 K, 36580 kPa	892.52	872.01	852.79	830.94	816.46	800.32	781.95	765.13	749.58	733.19
308.15 K, 38600 kPa	893.9	873.39	854.16	832.28	817.83	801.66	783.3	766.43	750.88	734.53
308.15 K, 39620 kPa	894.55	874.04	854.82	832.94	818.49	802.33	783.95	767.08	751.54	–
